± gives the expanded uncertainty stated by the source.
Key:
[1] = refractive index (Na D-line) (dimensionless); settings: 298.15 K; 101.33 kPa; Liquid; Standard Abbe refractometry
[2] = Liquid; for mass density: 298.15 K, 101.33 kPa; for Normal boiling temperature: Ebulliometric method (Recirculating still)
[3] = refractive index (Na D-line) (dimensionless); xn = mol fraction of the nth substance listed; settings: 298.15 K, 101 kPa, Liquid, Standard Abbe refractometry
[4] = xn = mol fraction of the nth substance listed; settings: 298.15 K, 101 kPa, Liquid

CCC(C)CO (stereo unspecified) [2-methyl-1-butanol]
Settings	Normal boiling temperature [°C]	mass density [kg/m3]	refractive index
[1]	–	–	1.40872 ± 0.00032
[2]	128.78 ± 0.3	814.87 ± 0.27	–

CCC(C)CO (stereo unspecified) [2-methyl-1-butanol] + CC(C)CO
Settings	mass density, [4] [kg/m3]	refractive index, [3]
x2 = 0.051	814.19 ± 0.27	1.40802 ± 0.00032
x2 = 0.101	813.53 ± 0.27	1.40742 ± 0.00032
x2 = 0.151	812.85 ± 0.27	1.40674 ± 0.00032
x2 = 0.2	812.17 ± 0.27	1.40606 ± 0.00032
x2 = 0.25	811.49 ± 0.27	1.40538 ± 0.00032
x2 = 0.3	810.75 ± 0.28	1.40466 ± 0.00032
x2 = 0.35	810.03 ± 0.28	1.40397 ± 0.00032
x2 = 0.401	809.29 ± 0.28	1.40328 ± 0.00032
x2 = 0.45	808.55 ± 0.28	1.40252 ± 0.00032
x2 = 0.5	807.79 ± 0.28	1.40178 ± 0.00032
x2 = 0.549	807.02 ± 0.28	1.40107 ± 0.00032
x2 = 0.599	806.25 ± 0.29	1.40029 ± 0.00033
x2 = 0.65	805.45 ± 0.29	1.39946 ± 0.00033
x2 = 0.701	804.63 ± 0.29	1.39866 ± 0.00033
x2 = 0.749	803.86 ± 0.29	1.3979 ± 0.00033
x2 = 0.8	803 ± 0.29	1.39706 ± 0.00033
x2 = 0.85	802.17 ± 0.29	1.3962 ± 0.00033
x2 = 0.899	801.17 ± 0.3	1.39533 ± 0.00033
x2 = 0.95	800.1 ± 0.3	1.3945 ± 0.00033

CC(C)CO [2-methyl-1-propanol]
Settings	Normal boiling temperature [°C]	mass density [kg/m3]	refractive index
[1]	–	–	1.3937 ± 0.00033
[2]	108 ± 0.3	797.84 ± 0.3	–

CC(C)CO [2-methyl-1-propanol] + CCCCCO
Settings	mass density, [4] [kg/m3]	refractive index, [3]
x1 = 0.05	810.3 ± 0.27	1.4071 ± 0.00032
x1 = 0.1	809.7 ± 0.27	1.4065 ± 0.00032
x1 = 0.15	809.09 ± 0.27	1.40588 ± 0.00032
x1 = 0.2	808.51 ± 0.27	1.40524 ± 0.00032
x1 = 0.249	807.94 ± 0.28	1.4046 ± 0.00032
x1 = 0.299	807.34 ± 0.28	1.40394 ± 0.00032
x1 = 0.35	806.75 ± 0.28	1.40326 ± 0.00032
x1 = 0.4	806.13 ± 0.28	1.40259 ± 0.00032
x1 = 0.45	805.53 ± 0.28	1.40193 ± 0.00032
x1 = 0.499	804.9 ± 0.28	1.40124 ± 0.00032
x1 = 0.549	804.29 ± 0.28	1.40055 ± 0.00032
x1 = 0.6	803.64 ± 0.29	1.39983 ± 0.00032
x1 = 0.65	803.01 ± 0.29	1.3991 ± 0.00033
x1 = 0.699	802.41 ± 0.29	1.39834 ± 0.00033
x1 = 0.75	801.73 ± 0.29	1.39758 ± 0.00033
x1 = 0.8	801.07 ± 0.29	1.39683 ± 0.00033
x1 = 0.85	800.39 ± 0.29	1.39604 ± 0.00033
x1 = 0.9	799.67 ± 0.3	1.39524 ± 0.00033
x1 = 0.95	798.84 ± 0.3	1.39447 ± 0.00033

CC(C)CCO [3-methylbutan-1-ol]
Settings	Normal boiling temperature [°C]	mass density [kg/m3]	refractive index
[1]	–	–	1.40515 ± 0.00032
[2]	131.12 ± 0.3	806.78 ± 0.27	–

CC(C)CCO [3-methylbutan-1-ol] + CC(C)CO
Settings	mass density, [4] [kg/m3]	refractive index, [3]
x2 = 0.051	805.95 ± 0.46	1.40469 ± 0.00032
x2 = 0.099	805.61 ± 0.46	1.40418 ± 0.00032
x2 = 0.15	805.25 ± 0.46	1.40371 ± 0.00032
x2 = 0.199	804.88 ± 0.46	1.40318 ± 0.00032
x2 = 0.254	804.48 ± 0.46	1.4026 ± 0.00032
x2 = 0.3	804.15 ± 0.46	1.40212 ± 0.00032
x2 = 0.35	803.77 ± 0.47	1.40161 ± 0.00032
x2 = 0.4	803.39 ± 0.47	1.40109 ± 0.00032
x2 = 0.445	803.05 ± 0.47	1.4006 ± 0.00032
x2 = 0.5	802.62 ± 0.47	1.39997 ± 0.00032
x2 = 0.549	802.23 ± 0.47	1.3994 ± 0.00032
x2 = 0.6	801.83 ± 0.47	1.39879 ± 0.00032
x2 = 0.65	801.42 ± 0.47	1.39821 ± 0.00032
x2 = 0.7	800.64 ± 0.48	1.39764 ± 0.00032
x2 = 0.751	800.19 ± 0.48	1.39701 ± 0.00033
x2 = 0.799	799.74 ± 0.48	1.39636 ± 0.00033
x2 = 0.849	799.27 ± 0.48	1.39567 ± 0.00033
x2 = 0.899	798.8 ± 0.48	1.395 ± 0.00033
x2 = 0.95	798.31 ± 0.48	1.39435 ± 0.00033

CCCCCO [pentan-1-ol]
Settings	Normal boiling temperature [°C]	mass density [kg/m3]	refractive index
[1]	–	–	1.4077 ± 0.00032
[2]	137.70 ± 0.3	810.96 ± 0.27	–
